Data: ChEMBL document CHEMBL6092206, “Discovery and Characterization of BAY-184: A New Potent and Selective Acylsulfonamide-Benzofuran In Vivo-Active KAT6AB Inhibitor” (J Med Chem, 2024)
Activity calls are given as the source filed them. No cut-off for these calls is given here.

Tests used:
[1] = molecular target: Histone acetyltransferase KAT6A (Homo sapiens, UniProt Q92794); test: Inhibition of KAT6A in human ZR-75-1 cells assessed as reduction in H3K23ac level at 1 uM incubated at 10 to 2880 mins by Western blot analysis; format: cell-based; conditions: time 10-2880 min
[2] = system: ZR-75-1; test: Antitumor activity against human ZR-75-1 cells xenografted in female estradiol-primed NMRI mouse assessed as reduction in H3K23 acetylation level in tumor at 100 mg/kg, po administered twice daily measured after 1 to 3 hrs by immunohistochemical analysis; format: functional, organism-based; conditions: time 1-3 hrs
[3] = molecular target: Histone acetyltransferase p300 (Homo sapiens, UniProt Q09472); test: Inhibition of GST-tagged human recombinant p300 (965 to 1810 residues) expressed in Sf9 insect cells using H3-derived peptide as substrate incubated for 30 mins in presence of AcCoA by TR-FRET assay
[4] = system: ZR-75-1; test: Antitumor activity against human ZR-75-1 cells xenografted in female estradiol-primed NMRI mouse assessed as reduction in H3K23 acetylation level in tumor at 100 mg/kg, po administered twice daily measured after 24 hrs by immunohistochemical analysis; format: functional, organism-based
[5] = system: BT-549; test: Antiproliferative activity against human BT-549 cells assessed as inhibition of cell growth incubated for 6 days by alamar blue staining based assay relative to control; format: functional; conditions: time 6 day
[6] = Stability of compound in borate buffer at pH 10 measured for 24 hrs by HPLC analysis; format: physicochemical; conditions: pH 10, 24 h
[7] = Stability in human plasma assessed as parent compound remaining after 4 hrs; format: ADME, cell-free
[8] = Volume of distribution at steady state in mouse at 0.5 mg/kg, iv; format: ADME, organism-based; conditions: in vivo, read-out: Vdss
[9] = Stability of compound in PBS buffer at pH 7 measured for 24 hrs by HPLC analysis; format: physicochemical; conditions: pH 7, 24 h
[10] = Mutagenicity in Salmonella typhimurium TA100 by Ames test; format: toxicity; conditions: salmonella enterica subsp. enterica serovar typhimurium
[11] = Metabolic stability in dog hepatocyte assessed as maximum bioavailability of the drug measured for 2 to 90 mins by LC-MS/MS analysis; format: ADME, Canis lupus familiaris; conditions: hepatocytes, time 2-90 min, read-out: Fmax
[12] = Metabolic stability in rat liver microsome assessed as clearance measured for 2 to 60 mins by LC-MS/MS analysis; format: ADME; conditions: microsomes, time 2-60 min
[13] = system: HCC1806; test: Antiproliferative activity against human HCC1806 cells assessed as inhibition of cell growth incubated for 6 days by alamar blue staining based assay relative to control; format: functional; conditions: time 6 day
[14] = Antiproliferative activity against human HCC1500 cells assessed as inhibition of cell growth incubated for 6 days by alamar blue staining based assay relative to control; format: functional; conditions: time 6 day
[15] = Half life in male Wistar rat at 0.5 mg/kg, iv measured upto 24 hrs by LC-MS/S analysis; format: ADME, organism-based; conditions: in vivo
[16] = Plasma protein binding in human assessed as unbound fraction equilibrium dialysis based LC-MS/MS analysis; format: ADME, cell-free
[17] = Metabolic stability in dog liver microsome assessed as maximum bioavailability of the drug measured for 2 to 60 mins by LC-MS/MS analysis; format: ADME, Canis lupus familiaris; conditions: liver microsomes, time 2-60 min, read-out: Fmax
[18] = system: LCLC-97TM1; test: Antiproliferative activity against human LCLC-97TM1 cells assessed as inhibition of cell proliferation incubated for 6 days by alamar blue staining based assay; format: functional; conditions: time 6.0 day
[19] = Toxicity in female estradiol-primed NMRI mouse assessed as tolerability at 50 to 10 mg/kg, po administered twice daily measured at 2 to 3 days; format: organism-based; conditions: in vivo, dose lower 50 mg/kg, time lower 2 day, dose upper 10 mg/kg, time upper 3 day
[20] = Volume of distribution at steady state in male Wistar rat at 0.5 mg/kg, iv or 1 mg/kg, po measured upto 24 hrs by LC-MS/S analysis; format: ADME, organism-based; conditions: in vivo
[21] = Metabolic stability in rat liver microsome assessed as maximum bioavailability of the drug measured for 2 to 60 mins by LC-MS/MS analysis; format: ADME; conditions: liver microsomes, time 2-60 min, read-out: Fmax
[22] = Metabolic stability in dog hepatocyte assessed as clearance measured for 2 to 90 mins by LC-MS/MS analysis; format: ADME, cell-based, Canis lupus familiaris; conditions: hepatocytes, time 2-90 min
[23] = molecular target: T1, Histone acetyltransferase KAT8 (Homo sapiens, UniProt Q9H7Z6); test: Inhibition of full length N-terminal GST-tagged human recombinant KAT8 (174 to 449 residues) using H4-derived peptide as substrate incubated for 60 mins in presence of AcCoA by TR-FRET assay; parameters: species or system Sf9
T1 sequence (Q9H7Z6 whole entry): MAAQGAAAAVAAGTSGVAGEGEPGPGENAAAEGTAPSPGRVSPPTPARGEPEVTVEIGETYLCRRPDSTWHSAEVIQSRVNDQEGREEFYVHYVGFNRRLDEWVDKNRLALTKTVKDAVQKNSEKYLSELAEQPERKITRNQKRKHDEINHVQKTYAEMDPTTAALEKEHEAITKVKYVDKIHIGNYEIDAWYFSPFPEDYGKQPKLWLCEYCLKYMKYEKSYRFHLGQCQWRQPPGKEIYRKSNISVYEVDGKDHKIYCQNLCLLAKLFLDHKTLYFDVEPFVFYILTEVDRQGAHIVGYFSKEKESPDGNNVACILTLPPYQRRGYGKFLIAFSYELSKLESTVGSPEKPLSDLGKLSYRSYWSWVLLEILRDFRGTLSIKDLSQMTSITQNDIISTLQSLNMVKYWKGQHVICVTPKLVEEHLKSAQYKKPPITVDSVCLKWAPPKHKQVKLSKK

[24] = Metabolic stability in rat hepatocyte assessed as clearance measured for 2 to 90 mins by LC-MS/MS analysis; format: ADME, cell-based; conditions: hepatocytes, time 2-90 min
[25] = Half life in mouse at 0.5 mg/kg, iv; format: ADME, organism-based; conditions: in vivo
[26] = system: MDA-MB-361; test: Antiproliferative activity against human MDA-MB-361 cells assessed as inhibition of cell growth incubated for 6 days by alamar blue staining based assay relative to control; format: functional; conditions: time 6 day
[27] = system: CAMA-1; test: Antiproliferative activity against human CAMA-1 cells assessed as inhibition of cell growth incubated for 6 days by alamar blue staining based assay relative to control; format: functional; conditions: time 6 day
[28] = Mutagenicity in Salmonella typhimurium TA98 in presence of S9 fraction by Ames test; format: toxicity, subcellular; conditions: salmonella enterica subsp. enterica serovar typhimurium
[29] = system: MDA-MB-436; test: Antiproliferative activity against human MDA-MB-436 cells assessed as inhibition of cell growth incubated for 6 days by alamar blue staining based assay relative to control; format: functional; conditions: time 6 day
[30] = system: HaCaT; test: Cytotoxicity against human HaCaT cells incubated for 72 hrs; format: toxicity, cell-based
[31] = AUC in mouse at 0.5 mg/kg, iv; format: ADME, organism-based; conditions: in vivo
[32] = Mutagenicity in Salmonella typhimurium TA98 by Ames test; format: toxicity; conditions: salmonella enterica subsp. enterica serovar typhimurium
[33] = Metabolic stability in rat hepatocyte assessed as maximum bioavailability of the drug measured for 2 to 90 mins by LC-MS/MS analysis; format: ADME; conditions: hepatocytes, time 2-90 min, read-out: Fmax
[34] = system: MDA-MB-231; test: Antiproliferative activity against human MDA-MB-231 cells assessed as inhibition of cell growth incubated for 6 days by alamar blue staining based assay relative to control; format: functional; conditions: time 6 day
[35] = Mutagenicity in Salmonella typhimurium TA1537 by Ames test; format: toxicity; conditions: salmonella enterica subsp. enterica serovar typhimurium
[36] = system: HCC1428; test: Antiproliferative activity against human HCC1428 cells assessed as inhibition of cell growth incubated for 6 days by alamar blue staining based assay relative to control; format: functional; conditions: time 6 day

Chain of Histone acetyltransferase p300 (Q09472 whole entry, the tested form may be a part): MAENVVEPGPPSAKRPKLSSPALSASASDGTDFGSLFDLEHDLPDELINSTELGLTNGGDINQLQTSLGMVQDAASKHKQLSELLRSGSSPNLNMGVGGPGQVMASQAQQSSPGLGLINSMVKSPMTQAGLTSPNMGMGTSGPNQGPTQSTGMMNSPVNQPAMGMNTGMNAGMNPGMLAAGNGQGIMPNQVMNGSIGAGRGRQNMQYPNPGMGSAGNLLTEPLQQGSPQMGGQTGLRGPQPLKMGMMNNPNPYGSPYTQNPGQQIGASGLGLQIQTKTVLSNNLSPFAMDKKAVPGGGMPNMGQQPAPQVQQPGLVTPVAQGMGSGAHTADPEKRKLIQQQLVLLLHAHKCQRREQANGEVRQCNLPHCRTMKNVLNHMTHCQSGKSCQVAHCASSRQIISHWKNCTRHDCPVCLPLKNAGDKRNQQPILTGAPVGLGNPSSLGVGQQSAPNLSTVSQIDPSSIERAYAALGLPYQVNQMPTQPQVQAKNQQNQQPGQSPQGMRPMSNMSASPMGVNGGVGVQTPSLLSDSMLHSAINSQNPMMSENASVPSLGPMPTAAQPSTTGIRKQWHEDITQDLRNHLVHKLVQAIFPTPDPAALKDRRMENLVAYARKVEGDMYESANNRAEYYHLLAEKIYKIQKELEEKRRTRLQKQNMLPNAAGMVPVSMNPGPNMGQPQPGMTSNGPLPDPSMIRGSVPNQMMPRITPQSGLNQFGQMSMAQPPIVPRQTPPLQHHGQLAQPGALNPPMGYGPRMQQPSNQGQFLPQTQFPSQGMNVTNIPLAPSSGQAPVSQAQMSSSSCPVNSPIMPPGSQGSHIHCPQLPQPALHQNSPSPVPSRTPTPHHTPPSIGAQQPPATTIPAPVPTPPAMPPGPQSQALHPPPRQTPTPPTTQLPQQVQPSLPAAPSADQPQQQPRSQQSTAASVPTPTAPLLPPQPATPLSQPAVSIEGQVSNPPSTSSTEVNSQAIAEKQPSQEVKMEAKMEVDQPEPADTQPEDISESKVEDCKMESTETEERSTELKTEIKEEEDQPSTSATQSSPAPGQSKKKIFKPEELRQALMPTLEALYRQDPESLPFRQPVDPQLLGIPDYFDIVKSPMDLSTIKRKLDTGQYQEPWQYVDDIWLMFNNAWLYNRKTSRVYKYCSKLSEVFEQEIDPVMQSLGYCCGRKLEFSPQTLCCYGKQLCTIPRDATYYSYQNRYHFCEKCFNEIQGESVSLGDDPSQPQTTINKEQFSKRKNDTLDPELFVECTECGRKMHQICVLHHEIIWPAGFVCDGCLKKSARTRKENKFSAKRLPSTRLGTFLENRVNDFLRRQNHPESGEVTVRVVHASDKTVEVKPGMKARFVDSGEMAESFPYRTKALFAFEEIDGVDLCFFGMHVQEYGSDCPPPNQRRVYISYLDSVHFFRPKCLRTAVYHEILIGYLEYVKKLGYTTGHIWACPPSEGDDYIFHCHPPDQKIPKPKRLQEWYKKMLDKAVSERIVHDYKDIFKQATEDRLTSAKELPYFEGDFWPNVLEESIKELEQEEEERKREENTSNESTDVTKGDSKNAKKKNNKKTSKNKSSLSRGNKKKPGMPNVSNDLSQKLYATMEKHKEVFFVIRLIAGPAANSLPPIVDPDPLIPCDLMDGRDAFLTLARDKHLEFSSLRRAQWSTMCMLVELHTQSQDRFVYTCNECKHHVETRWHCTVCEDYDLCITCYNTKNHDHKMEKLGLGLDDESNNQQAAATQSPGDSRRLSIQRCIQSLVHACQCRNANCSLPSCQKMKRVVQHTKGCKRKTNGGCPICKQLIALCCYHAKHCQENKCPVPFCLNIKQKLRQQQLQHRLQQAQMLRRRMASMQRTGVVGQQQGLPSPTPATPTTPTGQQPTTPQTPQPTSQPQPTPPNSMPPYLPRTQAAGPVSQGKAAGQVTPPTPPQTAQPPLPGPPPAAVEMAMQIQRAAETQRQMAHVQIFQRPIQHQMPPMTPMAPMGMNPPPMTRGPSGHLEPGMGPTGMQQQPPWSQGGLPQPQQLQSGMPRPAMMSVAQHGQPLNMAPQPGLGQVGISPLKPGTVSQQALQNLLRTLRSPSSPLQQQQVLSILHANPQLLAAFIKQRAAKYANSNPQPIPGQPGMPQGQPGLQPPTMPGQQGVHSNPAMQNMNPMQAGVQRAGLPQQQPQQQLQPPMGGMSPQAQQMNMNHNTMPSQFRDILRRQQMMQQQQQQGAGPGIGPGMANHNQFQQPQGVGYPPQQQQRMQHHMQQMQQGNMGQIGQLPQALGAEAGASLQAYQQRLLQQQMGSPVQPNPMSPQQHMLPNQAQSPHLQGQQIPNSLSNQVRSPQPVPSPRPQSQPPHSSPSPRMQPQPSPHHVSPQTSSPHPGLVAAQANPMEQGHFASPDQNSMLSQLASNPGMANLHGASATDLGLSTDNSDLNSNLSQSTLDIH
Chain of Histone acetyltransferase KAT6A (Q92794 whole entry, looked up): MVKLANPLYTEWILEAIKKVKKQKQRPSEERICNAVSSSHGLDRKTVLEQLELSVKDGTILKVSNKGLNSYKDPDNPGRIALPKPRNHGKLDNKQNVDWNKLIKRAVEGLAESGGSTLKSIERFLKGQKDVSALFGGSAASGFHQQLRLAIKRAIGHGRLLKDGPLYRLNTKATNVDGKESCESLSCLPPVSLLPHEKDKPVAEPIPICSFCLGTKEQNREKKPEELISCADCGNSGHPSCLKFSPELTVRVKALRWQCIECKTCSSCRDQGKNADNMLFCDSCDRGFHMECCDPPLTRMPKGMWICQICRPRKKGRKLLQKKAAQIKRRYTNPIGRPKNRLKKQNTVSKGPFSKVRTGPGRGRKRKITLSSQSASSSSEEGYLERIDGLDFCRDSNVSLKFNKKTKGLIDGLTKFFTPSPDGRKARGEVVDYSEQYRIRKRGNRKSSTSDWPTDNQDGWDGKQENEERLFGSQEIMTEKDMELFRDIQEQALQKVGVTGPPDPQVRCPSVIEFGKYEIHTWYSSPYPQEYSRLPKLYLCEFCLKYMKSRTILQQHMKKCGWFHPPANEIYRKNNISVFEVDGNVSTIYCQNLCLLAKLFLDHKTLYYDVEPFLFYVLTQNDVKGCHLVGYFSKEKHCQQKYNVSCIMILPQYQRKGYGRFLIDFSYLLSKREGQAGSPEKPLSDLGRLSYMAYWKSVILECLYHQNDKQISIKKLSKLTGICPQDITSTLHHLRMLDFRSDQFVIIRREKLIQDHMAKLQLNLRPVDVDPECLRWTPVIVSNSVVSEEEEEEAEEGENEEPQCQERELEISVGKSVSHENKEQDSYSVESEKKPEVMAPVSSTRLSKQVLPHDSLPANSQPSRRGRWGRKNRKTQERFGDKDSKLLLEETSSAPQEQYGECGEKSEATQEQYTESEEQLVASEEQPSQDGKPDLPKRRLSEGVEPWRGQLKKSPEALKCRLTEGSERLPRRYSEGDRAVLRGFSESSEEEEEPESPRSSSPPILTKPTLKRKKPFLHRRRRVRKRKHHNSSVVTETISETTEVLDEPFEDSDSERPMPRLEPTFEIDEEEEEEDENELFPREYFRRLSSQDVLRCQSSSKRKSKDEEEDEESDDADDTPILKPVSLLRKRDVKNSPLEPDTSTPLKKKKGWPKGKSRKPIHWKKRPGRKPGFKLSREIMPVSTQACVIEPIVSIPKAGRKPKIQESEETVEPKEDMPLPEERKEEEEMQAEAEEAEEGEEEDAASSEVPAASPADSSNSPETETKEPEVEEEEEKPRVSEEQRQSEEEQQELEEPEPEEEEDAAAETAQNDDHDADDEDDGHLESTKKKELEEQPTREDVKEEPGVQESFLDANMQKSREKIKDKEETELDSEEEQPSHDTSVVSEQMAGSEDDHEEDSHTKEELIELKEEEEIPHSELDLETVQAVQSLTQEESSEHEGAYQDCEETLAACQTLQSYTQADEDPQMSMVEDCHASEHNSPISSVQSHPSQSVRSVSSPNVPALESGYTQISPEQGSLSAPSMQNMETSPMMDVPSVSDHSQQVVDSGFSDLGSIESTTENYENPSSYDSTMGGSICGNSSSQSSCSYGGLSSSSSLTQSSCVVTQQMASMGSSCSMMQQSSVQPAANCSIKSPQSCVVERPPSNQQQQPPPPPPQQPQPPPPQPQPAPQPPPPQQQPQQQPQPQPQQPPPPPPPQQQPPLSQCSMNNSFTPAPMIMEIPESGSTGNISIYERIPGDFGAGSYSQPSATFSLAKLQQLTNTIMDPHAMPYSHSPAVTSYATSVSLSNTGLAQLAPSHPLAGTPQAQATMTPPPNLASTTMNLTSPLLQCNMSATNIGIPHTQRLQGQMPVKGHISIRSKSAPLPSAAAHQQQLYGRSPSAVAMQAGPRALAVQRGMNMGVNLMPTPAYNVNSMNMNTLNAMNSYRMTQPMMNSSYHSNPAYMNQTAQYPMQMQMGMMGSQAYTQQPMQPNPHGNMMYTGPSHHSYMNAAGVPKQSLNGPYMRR

With CN(C)c1ccc2cc(C(=O)NS(=O)(=O)c3ccccc3-c3ccccc3)oc2c1 the inhibition [1] was “Active”, the Activity [2] was “Active” and the IC50 [3] was greater than 10 µM. For the same molecule, the Activity [4] was “Active”, the “inhibition (INH)” value [5] was 0% and the Stability [6] was “Stable”. The Stability [7] was “Stable”, the Vd [8] was 0.32 L/kg and the Stability [9] was “Stable”. For the same molecule, the Activity [10] was “Non-toxic”, the Fh [11] was 53% and the CLH [12] was 50 mL/min/kg. For the same molecule, the “inhibition (INH)” value [13] was 0%, the “inhibition (INH)” value [14] was 49% and the t1/2 [15] was 0.94 h. For the same molecule, the Fu [16] was 0.042%, the Fh [17] was 80% and the Activity [18] was “Active”. The Activity [19] was “Non-toxic”, the Vdss [20] was 0.13 L/kg and the Fh [21] was 28%. It also gave a CLH [22] of 16.5 mL/min/kg, an IC50 [23] greater than 10 µM and a CLH [24] of 41.7 mL/min/kg. The half-life [25] was 1.3 h, the “inhibition (INH)” value [26] was 22% and the “inhibition (INH)” value [27] was 68%. The Activity [28] was “Non-toxic”, the “inhibition (INH)” value [29] was 0% and the Activity [30] was “Non-toxic”. For the same molecule, the AUC [31] was 2.5 kg·h/L, the Activity [32] was “Non-toxic” and the Fh [33] was 42%. The “inhibition (INH)” value [34] was 0%, the Activity [35] was “Non-toxic” and the “inhibition (INH)” value [36] was 51%.
